Results as given in patent US10501461B2, “Tyrosine amide derivatives as Rho-kinase inhibitors” (CHIESI FARMACEUTICI S.P.A., priority 2017, dated 2019).
pKi: −log10 of the molar value.

How the values were obtained:
Rho kinase 2 (ROCK-II) = Rho kinase 2 (ROCK-II) (Homo sapiens, UniProt O75116); assay: In vitro Rho kinase inhibitory activity assay (ADP-Glo), Rho kinase 2; assay type: biochemical; conditions: 10 μM ATP, 25° C., expressed as range of activity
Method: (§1) The effectiveness of compounds of the present invention to inhibit Rho kinase activity can be determined in a 10 μl assay containing 40 mM Tris pH7.5, 20 mM MgCl2 0.1 mg/ml BSA, 50 μM DTT and 2.5 μM peptide substrate (Myelin Basic Protein) using an ADP-Glo kit (Promega). Compounds were dissolved in DMSO such that the final concentration of DMSO was 1% in the assay. All reactions/incubations are performed at 25° C. Compound (2 ul) and either Rho kinase 1 or 2 (4 μl) were mixed and incubated for 30 mins. Reactions were initiated by addition of ATP (4 μl) such that the final concentration of ATP in the assay was 10 μM. After a 1 hour incubation 10 μl of ADP-Glo Reagent was added and after a further 45 minute incubation 20 ul of Kinase Detection Buffer was added and the mixture incubated for a further 30 minutes. The luminescent signal was measured on a luminometer. […] Compounds were tested in dose-response format and the inhibition of kinase activity was calculated at each concentration of compound. To determine the IC50 (concentration of compound required to inhibit 50% of the enzyme activity) data were fit to a plot of % inhibition vs Log10 compound concentration using a sigmoidal fit with a variable slope and fixing the maximum to 100% and the minimum to 0%. To determine the Ki values the Cheng-Prusoff equation was utilized (Ki=IC50/(1+[S]/Km).

Rho kinase 1 (ROCK-I) = Rho kinase 1 (ROCK-I) (Homo sapiens, UniProt Q13464); assay: In vitro Rho kinase inhibitory activity assay (ADP-Glo), Rho kinase 1; assay type: biochemical; conditions: 10 μM ATP, 25° C., expressed as range of activity
Method: as §1

Sequence of Rho kinase 1 (ROCK-I) (Q13464 whole entry): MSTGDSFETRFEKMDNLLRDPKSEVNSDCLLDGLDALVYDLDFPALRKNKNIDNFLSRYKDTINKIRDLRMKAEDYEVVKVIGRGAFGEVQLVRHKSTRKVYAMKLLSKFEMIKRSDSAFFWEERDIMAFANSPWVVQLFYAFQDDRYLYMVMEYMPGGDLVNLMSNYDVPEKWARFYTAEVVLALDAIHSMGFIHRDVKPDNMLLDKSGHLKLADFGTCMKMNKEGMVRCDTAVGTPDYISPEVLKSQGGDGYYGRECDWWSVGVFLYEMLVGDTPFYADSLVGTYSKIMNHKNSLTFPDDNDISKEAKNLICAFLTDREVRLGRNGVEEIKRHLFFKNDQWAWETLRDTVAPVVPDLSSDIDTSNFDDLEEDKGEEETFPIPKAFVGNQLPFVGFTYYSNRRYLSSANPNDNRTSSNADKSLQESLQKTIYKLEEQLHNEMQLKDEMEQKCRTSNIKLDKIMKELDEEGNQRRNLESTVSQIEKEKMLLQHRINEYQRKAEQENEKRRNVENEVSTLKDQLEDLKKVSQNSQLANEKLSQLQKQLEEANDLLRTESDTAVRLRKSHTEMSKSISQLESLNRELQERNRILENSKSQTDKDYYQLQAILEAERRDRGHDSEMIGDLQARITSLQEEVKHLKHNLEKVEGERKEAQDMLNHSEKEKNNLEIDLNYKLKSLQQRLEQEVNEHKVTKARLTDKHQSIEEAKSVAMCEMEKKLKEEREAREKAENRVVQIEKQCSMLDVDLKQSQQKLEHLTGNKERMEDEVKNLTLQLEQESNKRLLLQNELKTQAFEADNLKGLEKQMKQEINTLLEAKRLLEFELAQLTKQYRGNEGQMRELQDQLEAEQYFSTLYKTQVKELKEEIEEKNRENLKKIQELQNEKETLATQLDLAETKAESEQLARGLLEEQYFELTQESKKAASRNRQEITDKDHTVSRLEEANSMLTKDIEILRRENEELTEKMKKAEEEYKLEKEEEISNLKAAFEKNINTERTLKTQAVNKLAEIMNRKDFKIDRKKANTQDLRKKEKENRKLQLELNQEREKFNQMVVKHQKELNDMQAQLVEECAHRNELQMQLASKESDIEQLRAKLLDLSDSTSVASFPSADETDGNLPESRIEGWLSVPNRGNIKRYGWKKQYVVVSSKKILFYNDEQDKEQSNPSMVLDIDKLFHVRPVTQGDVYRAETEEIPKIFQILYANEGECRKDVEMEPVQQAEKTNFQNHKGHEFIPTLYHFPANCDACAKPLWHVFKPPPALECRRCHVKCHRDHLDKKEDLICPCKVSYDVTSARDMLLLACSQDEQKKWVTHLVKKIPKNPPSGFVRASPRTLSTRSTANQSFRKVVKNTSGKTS
Sequence of Rho kinase 2 (ROCK-II) (O75116 whole entry): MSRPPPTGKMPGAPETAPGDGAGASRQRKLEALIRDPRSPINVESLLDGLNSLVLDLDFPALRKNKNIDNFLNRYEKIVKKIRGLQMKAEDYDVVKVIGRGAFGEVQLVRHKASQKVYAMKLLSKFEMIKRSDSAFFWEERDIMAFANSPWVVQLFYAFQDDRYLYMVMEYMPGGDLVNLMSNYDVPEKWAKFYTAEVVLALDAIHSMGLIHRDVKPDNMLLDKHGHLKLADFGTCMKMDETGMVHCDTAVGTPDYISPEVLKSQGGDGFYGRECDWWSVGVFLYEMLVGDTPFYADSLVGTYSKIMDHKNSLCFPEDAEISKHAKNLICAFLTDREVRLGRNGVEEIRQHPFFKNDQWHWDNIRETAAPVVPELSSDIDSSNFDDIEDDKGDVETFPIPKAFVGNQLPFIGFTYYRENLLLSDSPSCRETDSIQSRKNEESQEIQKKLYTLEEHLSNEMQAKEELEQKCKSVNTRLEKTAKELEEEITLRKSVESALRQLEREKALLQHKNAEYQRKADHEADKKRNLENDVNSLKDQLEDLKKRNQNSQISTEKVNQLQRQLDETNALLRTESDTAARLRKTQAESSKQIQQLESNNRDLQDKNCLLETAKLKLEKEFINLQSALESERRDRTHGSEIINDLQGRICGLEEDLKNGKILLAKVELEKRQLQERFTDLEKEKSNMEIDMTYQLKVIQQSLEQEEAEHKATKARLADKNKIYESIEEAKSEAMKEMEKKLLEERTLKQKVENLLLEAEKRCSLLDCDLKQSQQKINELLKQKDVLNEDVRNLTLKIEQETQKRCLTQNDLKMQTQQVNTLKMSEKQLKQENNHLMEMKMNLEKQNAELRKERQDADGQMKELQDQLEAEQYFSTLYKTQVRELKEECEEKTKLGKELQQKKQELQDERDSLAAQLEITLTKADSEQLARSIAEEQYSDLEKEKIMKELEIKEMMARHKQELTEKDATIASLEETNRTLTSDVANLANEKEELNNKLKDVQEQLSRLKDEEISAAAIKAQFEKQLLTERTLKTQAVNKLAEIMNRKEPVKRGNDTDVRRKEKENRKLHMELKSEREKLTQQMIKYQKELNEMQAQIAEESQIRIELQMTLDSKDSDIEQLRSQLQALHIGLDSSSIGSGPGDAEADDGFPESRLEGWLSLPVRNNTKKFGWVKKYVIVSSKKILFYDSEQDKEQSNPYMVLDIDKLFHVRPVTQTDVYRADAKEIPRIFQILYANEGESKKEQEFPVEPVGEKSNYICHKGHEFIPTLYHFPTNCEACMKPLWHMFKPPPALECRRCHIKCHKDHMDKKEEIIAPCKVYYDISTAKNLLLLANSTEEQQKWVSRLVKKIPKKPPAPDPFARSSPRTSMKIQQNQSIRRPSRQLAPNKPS

Cc1c[nH]c2nccc(Oc3ccc(C[C@H](N)C(=O)NC4CCN(C)CC4)cc3F)c12 [Example 1, (S)-2-amino-3-(3-fluoro-4-((3-methyl-1H-pyrrolo[2,3-b]pyridin-4-yl)oxy)phenyl)-N-(1-methylpiperidin-4-yl)propanamide]
pKi (Rho kinase 2 (ROCK-II)): > 8.52 | pKi (Rho kinase 1 (ROCK-I)): > 8.52

N[C@@H](Cc1ccc(Oc2ncnc3[nH]ccc23)cc1)C(=O)N1CCN(Cc2ccccc2)CC1 [Example 226, (S)-3-(4-((7H-pyrrolo[2,3-d]pyrimidin-4-yl)oxy)phenyl)-2-amino-1-(4-benzylpiperazin-1-yl)propan-1-one]
pKi (Rho kinase 2 (ROCK-II)): 7.52 to 8.52 | pKi (Rho kinase 1 (ROCK-I)): 7.52 to 8.52

Cc1noc(C2CCN(C(=O)[C@@H](N)Cc3ccc(Oc4ccnc5[nH]cc(C)c45)c(F)c3)C2)n1 (single isomer, unassigned) [Example 8A]
pKi (Rho kinase 2 (ROCK-II)): > 8.52 | pKi (Rho kinase 1 (ROCK-I)): > 8.52

N[C@H](Cc1ccc(Oc2ccnc3[nH]ccc23)cc1)C(=O)NC1CCCCC1 [Example 112, (R)-3-(4-((1H-pyrrolo[2,3-b]pyridin-4-yl)oxy)phenyl)-2-amino-N-cyclohexylpropanamide]
pKi (Rho kinase 2 (ROCK-II)): 7.52 to 8.52 | pKi (Rho kinase 1 (ROCK-I)): < 7.52

N#Cc1c[nH]c2nccc(Oc3ccc(C[C@H](N)C(=O)N4CCN(Cc5ccccc5)CC4)cc3F)c12 [Example 220, (S)-4-(4-(2-amino-3-(4-benzylpiperazin-1-yl)-3-oxopropyl)-2-fluorophenoxy)-1H-pyrrolo[2,3-b]pyridine-3-carbonitrile]
pKi (Rho kinase 2 (ROCK-II)): > 8.52 | pKi (Rho kinase 1 (ROCK-I)): > 8.52

Cc1c[nH]c2nccc(Oc3ccc(C[C@H](N)C(=O)N4CCN(Cc5cncnc5)CC4)cc3F)c12 [Example 162, (S)-2-amino-3-(3-fluoro-4-((3-methyl-1H-pyrrolo[2,3-b]pyridin-4-yl)oxy)phenyl)-1-(4-(pyrimidin-5-ylmethyl)piperazin-1-yl)propan-1-one]
pKi (Rho kinase 2 (ROCK-II)): > 8.52 | pKi (Rho kinase 1 (ROCK-I)): > 8.52

Cc1c[nH]c2nccc(Oc3ccc(C[C@H](N)C(=O)N(C)C4CCN(C)CC4)cc3F)c12 [Example 44, (S)-2-amino-3-(3-fluoro-4-((3-methyl-1H-pyrrolo[2,3-b]pyridin-4-yl)oxy)phenyl)-N-methyl-N-(1-methylpiperidin-4-yl)propanamide]
pKi (Rho kinase 2 (ROCK-II)): > 8.52 | pKi (Rho kinase 1 (ROCK-I)): 7.52 to 8.52

Cc1noc(C2CCN(C(=O)[C@@H](N)Cc3ccc(Oc4ccnc5[nH]cc(C)c45)c(F)c3)C2)n1 (stereo partly drawn) [Example 8, (2S)-2-amino-3-(3-fluoro-4-((3-methyl-1H-pyrrolo[2,3-b]pyridin-4-yl)oxy)phenyl)-1-(3-(3-methyl-1,2,4-oxadiazol-5-yl)pyrrolidin-1-yl)propan-1-one]
pKi (Rho kinase 2 (ROCK-II)): > 8.52 | pKi (Rho kinase 1 (ROCK-I)): > 8.52

Cc1c[nH]c2nccc(Oc3ccc(C[C@H](N)C(=O)NCc4ccccc4)cc3)c12 [Example 135, (S)-2-amino-N-benzyl-3-(4-((3-methyl-1H-pyrrolo[2,3-b]pyridin-4-yl)oxy)phenyl)propanamide]
pKi (Rho kinase 2 (ROCK-II)): > 8.52 | pKi (Rho kinase 1 (ROCK-I)): > 8.52

Cc1c[nH]c2nccc(Oc3ccc(C[C@H](N)C(=O)N4CCN(Cc5ccccn5)CC4)cc3F)c12 [Example 27, (S)-2-amino-3-(3-fluoro-4-((3-methyl-1H-pyrrolo[2,3-b]pyridin-4-yl)oxy)phenyl)-1-(4-(pyridin-2-ylmethyl)piperazin-1-yl)propan-1-one]
pKi (Rho kinase 2 (ROCK-II)): > 8.52 | pKi (Rho kinase 1 (ROCK-I)): > 8.52

Cc1c[nH]c2nccc(Oc3ccc(CC(N)C(=O)NCC4CCN(Cc5ccccc5)CC4)cc3F)c12 (stereo not drawn) [Example 82, 2-amino-N-((1-benzylpiperidin-4-yl)methyl)-3-(3-fluoro-4-((3-methyl-1H-pyrrolo[2,3-b]pyridin-4-yl)oxy)phenyl)propanamide]
pKi (Rho kinase 2 (ROCK-II)): > 8.52 | pKi (Rho kinase 1 (ROCK-I)): > 8.52

N[C@@H](Cc1ccc(Oc2ccnc3[nH]cc(-c4ccc(O)cc4)c23)cc1)C(=O)N1CCN(Cc2ccccc2)CC1 [Example 200, (S)-2-amino-1-(4-benzylpiperazin-1-yl)-3-(4-((3-(4-hydroxyphenyl)-1H-pyrrolo[2,3-b]pyridin-4-yl)oxy)phenyl)propan-1-one]
pKi (Rho kinase 2 (ROCK-II)): > 8.52 | pKi (Rho kinase 1 (ROCK-I)): > 8.52

CN1CCC(NC(=O)[C@@H](N)Cc2ccc(Oc3ccnc4[nH]cc(CO)c34)c(F)c2)CC1 [Example 210, (S)-2-amino-3-(3-fluoro-4-((3-(hydroxymethyl)-1H-pyrrolo[2,3-b]pyridin-4-yl)oxy)phenyl)-N-(1-methylpiperidin-4-yl)propanamide]
pKi (Rho kinase 2 (ROCK-II)): 7.52 to 8.52 | pKi (Rho kinase 1 (ROCK-I)): 7.52 to 8.52

Cc1c[nH]c2nccc(Oc3ccc(C[C@H](N)C(=O)N4CCN(Cc5cnc6ccccc6n5)CC4)cc3F)c12 [Example 159, (S)-2-amino-3-(3-fluoro-4-((3-methyl-1H-pyrrolo[2,3-b]pyridin-4-yl)oxy)phenyl)-1-(4-(quinoxalin-2-ylmethyl)piperazin-1-yl)propan-1-one]
pKi (Rho kinase 2 (ROCK-II)): > 8.52 | pKi (Rho kinase 1 (ROCK-I)): > 8.52

Cc1c[nH]c2nccc(Oc3ccc(C[C@H](N)C(=O)N4CC(CN(C)C)C4)cc3F)c12 [Example 48, (S)-2-amino-1-(3-((dimethylamino)methyl)azetidin-1-yl)-3-(3-fluoro-4-((3-methyl-1H-pyrrolo[2,3-b]pyridin-4-yl)oxy)phenyl)propan-1-one]
pKi (Rho kinase 2 (ROCK-II)): > 8.52 | pKi (Rho kinase 1 (ROCK-I)): > 8.52

N[C@@H](Cc1ccc(Oc2ccnc3[nH]cc(-c4ccc(O)cc4)c23)cc1)C(=O)NCCc1ccncc1 [Example 206, (S)-2-amino-3-(4-((3-(4-hydroxyphenyl)-1H-pyrrolo[2,3-b]pyridin-4-yl)oxy)phenyl)-N-(2-(pyridin-4-yl)ethyl)propanamide]
pKi (Rho kinase 2 (ROCK-II)): > 8.52 | pKi (Rho kinase 1 (ROCK-I)): > 8.52

N[C@@H](Cc1ccc(Oc2ccnc3[nH]ccc23)cc1)C(=O)Nc1ccc(Cl)nc1 [Example 94, (S)-3-(4-((1H-pyrrolo[2,3-b]pyridin-4-yl)oxy)phenyl)-2-amino-N-(6-chloropyridin-3-yl)propanamide]
pKi (Rho kinase 2 (ROCK-II)): > 8.52 | pKi (Rho kinase 1 (ROCK-I)): > 8.52

N[C@@H](Cc1ccc(Oc2ccnc3[nH]cc(CO)c23)c(F)c1)C(=O)NC1CCOCC1 [Example 209, (S)-2-amino-3-(3-fluoro-4-((3-(hydroxymethyl)-1H-pyrrolo[2,3-b]pyridin-4-yl)oxy)phenyl)-N-(tetrahydro-2H-pyran-4-yl)propanamide]
pKi (Rho kinase 2 (ROCK-II)): > 8.52 | pKi (Rho kinase 1 (ROCK-I)): 7.52 to 8.52

Cc1c[nH]c2ncnc(Oc3ccc(C[C@H](N)C(=O)N4C[C@@H]5C[C@H]4CN5C)cc3F)c12 [Example 121, 2-amino-3-(3-fluoro-4-((5-methyl-7H-pyrrolo[2,3-d]pyrimidin-4-yl)oxy)phenyl)-1-((1S,4S)-5-methyl-2,5-diazabicyclo[2.2.1]heptan-2-yl)propan-1-one]
pKi (Rho kinase 2 (ROCK-II)): 7.52 to 8.52 | pKi (Rho kinase 1 (ROCK-I)): 7.52 to 8.52

N[C@@H](Cc1ccc(Oc2ccnc3[nH]ccc23)c(F)c1)C(=O)Nc1ccccc1 [Example 147, (S)-3-(4-((1H-pyrrolo[2,3-b]pyridin-4-yl)oxy)-3-fluorophenyl)-2-amino-N-phenylpropanamide]
pKi (Rho kinase 2 (ROCK-II)): > 8.52 | pKi (Rho kinase 1 (ROCK-I)): 7.52 to 8.52

N[C@@H](Cc1ccc(Oc2ccnc3[nH]cc(-c4cnoc4)c23)cc1)C(=O)N1CCN(Cc2ccccc2)CC1 [Example 198, (S)-2-amino-1-(4-benzylpiperazin-1-yl)-3-(4-((3-(isoxazol-4-yl)-1H-pyrrolo[2,3-b]pyridin-4-yl)oxy)phenyl)propan-1-one]
pKi (Rho kinase 2 (ROCK-II)): > 8.52 | pKi (Rho kinase 1 (ROCK-I)): > 8.52

COc1ccc(CN2CCN(C(=O)C(N)Cc3ccc(Oc4ccnc5[nH]cc(C)c45)c(F)c3)CC2)cc1 (stereo not drawn) [Example 75, 2-amino-3-(3-fluoro-4-((3-methyl-1H-pyrrolo[2,3-b]pyridin-4-yl)oxy)phenyl)-1-(4-(4-methoxybenzyl)piperazin-1-yl)propan-1-one]
pKi (Rho kinase 2 (ROCK-II)): > 8.52 | pKi (Rho kinase 1 (ROCK-I)): > 8.52

Cc1c[nH]c2nccc(Oc3ccc(C[C@H](N)C(=O)N4C[C@@H](C)N(Cc5ccccc5)[C@@H](C)C4)cc3F)c12 [Example 26, (S)-2-amino-1-((3S,5R)-4-benzyl-3,5-dimethylpiperazin-1-yl)-3-(3-fluoro-4-((3-methyl-1H-pyrrolo[2,3-b]pyridin-4-yl)oxy)phenyl)propan-1-one]
pKi (Rho kinase 2 (ROCK-II)): > 8.52 | pKi (Rho kinase 1 (ROCK-I)): > 8.52

Cc1c[nH]c2nccc(Oc3ccc(C[C@H](N)C(=O)N4C[C@H]5CNC[C@H]5C4)cc3F)c12 [Example 31, (S)-2-amino-3-(3-fluoro-4-((3-methyl-1H-pyrrolo[2,3-b]pyridin-4-yl)oxy)phenyl)-1-((3aR,6aS)-hexahydropyrrolo[3,4-c]pyrrol-2(1H)-yl)propan-1-one]
pKi (Rho kinase 2 (ROCK-II)): > 8.52 | pKi (Rho kinase 1 (ROCK-I)): > 8.52

N[C@H](Cc1ccc(Oc2ccnc3[nH]ccc23)cc1)C(=O)NCC1CCCCC1 [Example 108, (R)-3-(4-((1H-pyrrolo[2,3-b]pyridin-4-yl)oxy)phenyl)-2-amino-N-(cyclohexylmethyl)propanamide]
pKi (Rho kinase 2 (ROCK-II)): 7.52 to 8.52 | pKi (Rho kinase 1 (ROCK-I)): 7.52 to 8.52

Cc1c[nH]c2nccc(Oc3ccc(C[C@H](N)C(=O)NC4CCOCC4)cc3)c12 [Example 90, (S)-2-amino-3-(4-((3-methyl-1H-pyrrolo[2,3-b]pyridin-4-yl)oxy)phenyl)-N-(tetrahydro-2H-pyran-4-yl)propanamide]
pKi (Rho kinase 2 (ROCK-II)): > 8.52 | pKi (Rho kinase 1 (ROCK-I)): > 8.52

CN1C[C@@H]2C[C@H]1CN2C(=O)[C@@H](N)Cc1ccc(Oc2ccnc3[nH]cc(C#N)c23)c(F)c1 [Example 223, 4-(4-((S)-2-amino-3-((1S,4S)-5-methyl-2,5-diazabicyclo[2.2.1]heptan-2-yl)-3-oxopropyl)-2-fluorophenoxy)-1H-pyrrolo[2,3-b]pyridine-3-carbonitrile]
pKi (Rho kinase 2 (ROCK-II)): > 8.52 | pKi (Rho kinase 1 (ROCK-I)): > 8.52
